Assays:
Vasopressin V1 = Vasopressin V1 Antagonist Activity in Conscious Rats (vasopressin vasopressor response); assay type: in vivo, rat; parameters: Average Change: unit not given here; conditions: for % Inhibition / Average Change: SHR
In short: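 Conscious rats are restrained supine, and under local 2% procaine a PE 10/20 cannula is passed through the ventral caudal tail artery into the lower abdominal aorta. The caudal vein is cannulated for intravenous dosing. Blood pressure is recorded with a Statham P23Db transducer, and vasopressin injections are repeated after compound dosing. Percent antagonism is calculated against the pre-drug vasopressor response taken as 100%.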

Rat Hepatic V1 Receptors = target: T1, Rat Hepatic V1 Receptors (Rattus norvegicus, UniProt P30560); assay: Binding Assay to Rat Hepatic V1 Receptors; conditions: rat liver membranes; read-out: V1 IC50
T1 construct: Rat liver plasma membranes expressing the vasopressin V1 receptor subtypes; from tissue; host or cells: rat liver plasma membranes
T1 sequence (P30560 whole entry): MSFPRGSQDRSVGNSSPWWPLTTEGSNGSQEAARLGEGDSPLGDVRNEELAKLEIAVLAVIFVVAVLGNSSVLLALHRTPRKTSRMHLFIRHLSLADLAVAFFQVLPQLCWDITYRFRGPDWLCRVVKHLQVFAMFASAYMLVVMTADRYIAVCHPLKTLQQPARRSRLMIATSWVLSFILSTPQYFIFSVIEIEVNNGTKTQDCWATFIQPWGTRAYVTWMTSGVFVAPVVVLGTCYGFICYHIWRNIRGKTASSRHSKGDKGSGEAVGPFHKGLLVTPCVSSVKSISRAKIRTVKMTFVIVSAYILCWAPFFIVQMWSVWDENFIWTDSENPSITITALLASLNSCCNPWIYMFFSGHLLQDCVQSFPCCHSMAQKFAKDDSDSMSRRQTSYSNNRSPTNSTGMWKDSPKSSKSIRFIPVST

Vasopressin V2 = Vasopressin V2 Antagonist Activity in Conscious Hydrated Rats; assay type: in vivo, rat; conditions: AVP 0.4 μg/kg i.p.
In short: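 Four-hour urine output, osmolality and electrolytes (Na+, K+, Cl−) recorded in water-loaded rats (30 mL/kg deionized water orally) given AVP i.p. at 0.4 μg/kg. Test compounds were given orally at 0.1–100 mg/kg 1 h before AVP; 2–4 rats per compound.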

[1] = target: T2, Rat Kidney Medullary V2 Receptors (Rattus norvegicus, UniProt Q00788); assay: Binding Assay to Rat Kidney Medullary V2 Receptors; conditions: rat kidney medulla membranes; read-out: V2 IC50
T2 construct: Medullary tissues from rat kidneys are dissected out; from tissue; host or cells: rat kidney medulla membranes
T2 sequence (Q00788 whole entry): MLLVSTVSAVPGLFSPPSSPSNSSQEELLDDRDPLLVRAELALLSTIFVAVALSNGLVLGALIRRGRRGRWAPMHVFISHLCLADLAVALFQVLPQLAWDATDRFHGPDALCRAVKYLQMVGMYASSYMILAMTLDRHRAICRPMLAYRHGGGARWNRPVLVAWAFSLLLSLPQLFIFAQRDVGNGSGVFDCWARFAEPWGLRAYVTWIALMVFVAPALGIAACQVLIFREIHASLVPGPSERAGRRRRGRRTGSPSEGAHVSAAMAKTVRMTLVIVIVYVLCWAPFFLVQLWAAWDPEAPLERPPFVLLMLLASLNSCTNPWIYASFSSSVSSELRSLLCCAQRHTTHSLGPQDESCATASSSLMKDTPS
In short: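 IC50 derived from competition curves; bound tritium counted by liquid scintillation after filtration. Rat medullary kidney membranes (Tris-HCl pH 7.4, BSA, PMSF) were incubated 120 min to equilibrium with radioligand and test compound (added in 50% DMSO). Nonspecific binding: 1.0 μM unlabeled ligand.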

[2] = 10 mg/kg i.v., VAS 0.01 i.u./kg, 30 min
[3] = 10 mg/kg i.v., VAS 0.01 i.u./kg, 60 min
[4] = 10 mg/kg i.v., VAS 0.01 i.u./kg, 90 min
[5] = 10 mg/kg i.v., VAS 0.01 i.u./kg, 120 min
[6] = 10 mg/kg i.v., VAS 0.01 i.u./kg, 180 min
[7] = 10 mg/kg i.v., VAS 0.01 i.u./kg, 240 min
[8] = 10 mg/kg i.v., VAS 0.01 i.u./kg, 300 min
[9] = 10 mg/kg i.v., VAS 0.02 i.u./kg, 30 min
[10] = 10 mg/kg i.v., VAS 0.02 i.u./kg, 60 min
[11] = 10 mg/kg i.v., VAS 0.02 i.u./kg, 90 min
[12] = 10 mg/kg i.v., VAS 0.02 i.u./kg, 120 min
[13] = 10 mg/kg i.v., VAS 0.02 i.u./kg, 180 min
[14] = 10 mg/kg i.v., VAS 0.02 i.u./kg, 240 min
[15] = 10 mg/kg i.v., VAS 0.02 i.u./kg, 300 min

SMILES	% Inhibition (Vasopressin V1; [2])	Average Change (Vasopressin V1; [2])	% Inhibition (Vasopressin V1; [3])	Average Change (Vasopressin V1; [3])	% Inhibition (Vasopressin V1; [4])	Average Change (Vasopressin V1; [4])	% Inhibition (Vasopressin V1; [5])	Average Change (Vasopressin V1; [5])	% Inhibition (Vasopressin V1; [6])	Average Change (Vasopressin V1; [6])	% Inhibition (Vasopressin V1; [7])	Average Change (Vasopressin V1; [7])	% Inhibition (Vasopressin V1; [8])	Average Change (Vasopressin V1; [8])	% Inhibition (Vasopressin V1; [9])	Average Change (Vasopressin V1; [9])	IC50 (Rat Hepatic V1 Receptors)	Osmolality (Vasopressin V2; 10 mg/kg orally)	Urine Volume (Vasopressin V2; 10 mg/kg orally)	IC50 [1]	other results
COc1ccccc1C(=O)Nc1ccc(C(=O)N2Cc3cccn3Cc3ccccc32)cc1 [Example 2, N-[4-(5H-Pyrrolo[2,1-c][1,4]benzodiazepin-10(11H)-ylcarbonyl)phenyl]-2-methoxybenzamide]	79%	6.5	74%	8	66%	10.5	69%	9.5	55%	14	47%	16.5	44%	17.5	84%	8	31 nM	1015 mOsm/kg	9.3 ml/4 hrs	14 nM	% Inhibition (Vasopressin V1; [10]): 74%; Average Change (Vasopressin V1; [10]): 13; % Inhibition (Vasopressin V1; [11]): 70%; Average Change (Vasopressin V1; [11]): 15; % Inhibition (Vasopressin V1; [12]): 70%; Average Change (Vasopressin V1; [12]): 15; % Inhibition (Vasopressin V1; [13]): 56%; Average Change (Vasopressin V1; [13]): 22; % Inhibition (Vasopressin V1; [14]): 50%; Average Change (Vasopressin V1; [14]): 25; % Inhibition (Vasopressin V1; [15]): 37%; Average Change (Vasopressin V1; [15]): 31.5; Max. % Inhibition (Vasopressin V1; 30 mg/kg i.v.): 74%; Time (of max. % inhibition) (Vasopressin V1; 30 mg/kg i.v.): 120 min
Cc1ccsc1C(=O)Nc1ccc(C(=O)N2Cc3cccn3Cc3ccccc32)cc1 [Example 5, N-[4-(5H-pyrrolo[2,1-c][1,4]benzodiazepin10(11H)-ylcarbonyl)phenyl]-3-methyl-2-thiophenecarboxamide]	83%	5.5	76%	7.5	71%	9	59%	13	62%	12	46%	17	5%	30	72%	13.5	15 nM	1079 mOsm/kg	8.5 ml/4 hrs	25 nM	% Inhibition (Vasopressin V1; [10]): 78%; Average Change (Vasopressin V1; [10]): 10.5; % Inhibition (Vasopressin V1; [11]): 83%; Average Change (Vasopressin V1; [11]): 8; % Inhibition (Vasopressin V1; [12]): 69%; Average Change (Vasopressin V1; [12]): 15; % Inhibition (Vasopressin V1; [13]): 60%; Average Change (Vasopressin V1; [13]): 19; % Inhibition (Vasopressin V1; [14]): 51%; Average Change (Vasopressin V1; [14]): 23.5; % Inhibition (Vasopressin V1; [15]): 18%; Average Change (Vasopressin V1; [15]): 39.5; Osmolality (Vasopressin V2; 30 mg/kg orally): 955 mOsm/kg; Urine Volume (Vasopressin V2; 30 mg/kg orally): 7.7 ml/4 hrs
O=C(Nc1ccc(C(=O)N2Cc3cccn3Cc3ccccc32)cc1)c1ccccc1F [Example 8, N-[4-(5H-pyrrolo[2,1-c][1,4]benzodiazepin10(11H)-ylcarbonyl)phenyl]-2-fluorobenzamide]	61%	14.5	61%	14.5	73%	10	69%	11.5	62%	14	59%	15	51%	18	54%	23.5	56 nM	1211 mOsm/kg	3.4 ml/4 hrs	35 nM	% Inhibition (Vasopressin V1; [10]): 58%; Average Change (Vasopressin V1; [10]): 21.5; % Inhibition (Vasopressin V1; [11]): 66%; Average Change (Vasopressin V1; [11]): 17.5; % Inhibition (Vasopressin V1; [12]): 70%; Average Change (Vasopressin V1; [12]): 15.5; % Inhibition (Vasopressin V1; [13]): 46%; Average Change (Vasopressin V1; [13]): 28; % Inhibition (Vasopressin V1; [14]): 44%; Average Change (Vasopressin V1; [14]): 29; % Inhibition (Vasopressin V1; [15]): 46%; Average Change (Vasopressin V1; [15]): 28; Osmolality (Vasopressin V2; 30 mg/kg orally): 1010 mOsm/kg; Urine Volume (Vasopressin V2; 30 mg/kg orally): 9.1 ml/4 hrs
O=C(Cc1ccccc1Cl)Nc1ccc(C(=O)N2Cc3cccn3Cc3ccccc32)cc1 [Example 9, 2-Chloro-N-[4-(5H-pyrrolo[2,1-c][1,4]-benzodiazepin-10(11H)-ylcarbonyl)phenyl]benzeneacetamide]	–	–	–	–	–	–	–	–	–	–	–	–	–	–	–	–	7 nM	702 mOsm/kg	5.8 ml/4 hrs	4 nM	Max. % Inhibition (Vasopressin V1; 10 mg/kg i.v.): 95%; Time (of max. % inhibition) (Vasopressin V1; 10 mg/kg i.v.): 60 min
Cc1ccccc1C(=O)Nc1ccc(C(=O)N2Cc3cccn3-c3ccccc32)cc1 [Example 14, 2-Methyl-N-[4-(pyrrolo[1,2-a]quinoxalin-5 (4H)-ylcarbonyl)phenyl]benzamide]	25%	26	23%	26.5	39%	21	23%	26.5	6%	32.5	17%	28.5	26%	25.5	20%	38	170 nM	836 mOsm/kg	5.2 ml/4 hrs	66 nM	% Inhibition (Vasopressin V1; [10]): 34%; Average Change (Vasopressin V1; [10]): 31.5; % Inhibition (Vasopressin V1; [11]): 16%; Average Change (Vasopressin V1; [11]): 40; % Inhibition (Vasopressin V1; [12]): 17%; Average Change (Vasopressin V1; [12]): 39.5; % Inhibition (Vasopressin V1; [13]): -9%; Average Change (Vasopressin V1; [13]): 52; % Inhibition (Vasopressin V1; [14]): 25%; Average Change (Vasopressin V1; [14]): 35.5; % Inhibition (Vasopressin V1; [15]): 16%; Average Change (Vasopressin V1; [15]): 40; Osmolality (Vasopressin V2; 3 mg/kg orally): 1000 mOsm/kg; Urine Volume (Vasopressin V2; 3 mg/kg orally): 4.5 ml/4 hrs

— patent US5624923A, “Tricyclic diazepine vasopressin antagonists and oxytocin antagonists” (priority 1995, dated 1997)
